# Assay results taken from publication PMC7403980, “Anti-Inflammatory Effects of the Novel PIM Kinase Inhibitor KMU-470 in RAW 264.7 Cells through the TLR4-NF-κB-NLRP3 Pathway” (International Journal of Molecular Sciences, 2020).
# Assays:
# Format in all cases: cell-based, murine
# iNOS protein = assay: LPS-induced iNOS protein expression in RAW 264.7 cells (Western blot); conditions: KMU-470 0.5 and 1 μM 30 min, LPS 1 μg/mL 24 h
# Protocol: Figure 3 Inhibitory effect of KMU-470 on LPS-induced NO production and iNOS protein expression, and cell viability in RAW 264.7 cells. (A) The cells were pre-treated with KMU-470 at a concentration of 1 μM for 30 min and then treated with different concentrations of LPS for 24 h. Nitrite in the culture supernatant was collected and evaluated using Griess reagent. Absorbance was measured at 540 nm. *** p < 0.001, ** p < 0.01, * p < 0.05. (B) Cells are pre-treated with two different concentrations of KMU-470 (0.5 μM and 1 μM) for 30 min, followed by treatment with 1 μg/mL LPS for 24 h. β-actin was used as an internal control for Western blot analysis. (C) Image-J program was used to analyze the relative optical density of the iNOS band. (D) Cells were treated with various concentrations of KMU-470 for 24 h. […] (E) The cell proliferation rate was determined by cell count using a trypan blue exclusion assay. *p < 0.05 (F) Effect of KMU-470 on cell viability was measured by XTT assay. *** p < 0.001.
# (§1) RAW 264.7 cells were pre-treated with KMU-470 (0.5–1 μM/mL) for 24 h and stimulated with LPS (50 ng/mL) for 6 h. […] Immunoreactive proteins were detected using the ELC Western blot detection system kit (Millipore). Signal intensity was measured using the Chemi Image documentation system (Fusion Fx7, VILBER LOUTMAT). Protein expression levels were quantified using the Image J program.
# TLR4 = assay: LPS-induced TLR4 protein expression in RAW 264.7 cells (Western blot); conditions: KMU-470 0.5 and 1 μM 30 min, LPS 6 h
# Protocol: (§2) Figure 4 Inhibitory effect of KMU-470 on LPS-induced TLR4 and MyD88 protein expression in RAW 264.7 cells. (A,B) Cells were pre-treated with 0.5 and 1 μM of KMU-470 for 30 min prior to LPS treatment. Then, total protein was isolated after 6 h exposure to LPS. The protein expression level of TLR4 and MyD88 were assessed using Western blot analysis. (C,D) The relative optical densities of TLR4 and MyD88 bands were analyzed by the Image-J program. *** p < 0.001.
# (§3) RAW 264.7 cells were pre-treated with KMU-470 (0.5–1 μM/mL) for 24 h and stimulated with LPS (50 ng/mL) for 6 h. After stimulation, total cells were harvested, washed with PBS buffer, and then the total protein was extracted with a RIPA buffer (0.1 mM sodium orthovanadate, 137 mM NaCl, 15 mM EGTA, 0.1% Triton X-100, 25 mM MOPS, 15 mM MgCl2, 100 μM phenylmethylsulfonyl fluoride, and 20 μM leupeptin, adjusted to pH 7.2). The cell culture media supernatants were precipitated using TCA (trichloroacetic acid, protocol by Luis Sanchez 2001). A BCA protein assay kit (Thermo Scientific, Wilmington, USA) was used for the determination of the protein concentration. […] Immunoreactive proteins were detected using the ELC Western blot detection system kit (Millipore). Signal intensity was measured using the Chemi Image documentation system (Fusion Fx7, VILBER LOUTMAT). Protein expression levels were quantified using the Image J program.
# MyD88 = assay: LPS-induced MyD88 protein expression in RAW 264.7 cells (Western blot); conditions: KMU-470 0.5 and 1 μM 30 min, LPS 6 h
# Protocol: as §2, §3
# JNK = assay: LPS-induced phosphorylation of JNK in RAW 264.7 cells (Western blot); conditions: KMU-470 1 μM 24 h pre-treatment, LPS 50 ng/mL
# Protocol: (§4) Figure 5 Effect of KMU-470 on LPS-induced phosphorylation of MAPKs/ IKKs/ NF-κB in RAW 264.7 cells. (A) Cells were pre-treated with 1μM of KMU-470 for 24 h and stimulated with LPS (50 ng/mL) at the indicated times. (C) Cells were pre-treated with 0.5 and 1μM of KMU-470 for 30 min prior to LPS treatment. Total proteins were isolated after 6 h exposure to LPS (50 ng/mL). The protein expression level of MAPKs, p-IKKα/β, and p-NF-κB were assessed using Western blot analyses. (B,D) The relative optical densities of MAPKs, p-IKKα/β, and p-NF-κB bands were analyzed by the Image-J program. *** p < 0.001.
# as §3, with “7.2).” for “7.2). The cell culture media supernatants were precipitated using TCA (trichloroacetic acid, protocol by Luis Sanchez 2001). A BCA protein assay kit (Thermo Scientific, Wilmington, USA) was used for the determination of the protein concentration.”
# p38 = assay: LPS-induced phosphorylation of p38 in RAW 264.7 cells (Western blot); conditions: KMU-470 1 μM 24 h pre-treatment, LPS 50 ng/mL
# Protocol: as §4
# as §3, with “7.2).” for “7.2). The cell culture media supernatants were precipitated using TCA (trichloroacetic acid, protocol by Luis Sanchez 2001). A BCA protein assay kit (Thermo Scientific, Wilmington, USA) was used for the determination of the protein concentration.”
# IKKα/β = assay: LPS-induced phosphorylation of IKKα/β in RAW 264.7 cells (Western blot); conditions: KMU-470 0.5 and 1 μM 30 min, LPS 50 ng/mL 6 h
# Protocol: as §4
# as §3, with “7.2).” for “7.2). The cell culture media supernatants were precipitated using TCA (trichloroacetic acid, protocol by Luis Sanchez 2001). A BCA protein assay kit (Thermo Scientific, Wilmington, USA) was used for the determination of the protein concentration.”
# NF-κB = assay: LPS-induced phosphorylation of NF-κB in RAW 264.7 cells (Western blot); conditions: KMU-470 0.5 and 1 μM 30 min, LPS 50 ng/mL 6 h
# Protocol: as §4
# as §3, with “7.2).” for “7.2). The cell culture media supernatants were precipitated using TCA (trichloroacetic acid, protocol by Luis Sanchez 2001). A BCA protein assay kit (Thermo Scientific, Wilmington, USA) was used for the determination of the protein concentration.”
# ASC = assay: LPS-induced ASC protein expression in RAW 264.7 cells (Western blot); conditions: KMU-470 0.1, 0.5, 1 μM 30 min, LPS 50 ng/mL 6 h
# Protocol: (§5) Figure 6 Inhibitory effect of KMU-470 on LPS-induced up-regulation of pro-inflammatory cytokines and activation of NLRP3 inflammasome in RAW 264.7 cells. (A–C) Cells were treated with KMU-470 for 30 min and stimulated with LPS 50 ng/mL for 6 h. The levels of IL-1β, TNF-α, and IL-6 were determined using real time PCR. *** p < 0.001, *p < 0.05. (D) Cells were pre-treated with 0.1, 0.5, and 1 μM of KMU-470 for 30 min and treated with LPS 50 ng/mL for 6 h, respectively. Whole cell lysates were isolated and used to measure the protein expression levels of pro-IL-1β and β-actin by Western blot analysis. (E) Cells were pre-treated with 0.1, 0.5, and 1 μM of KMU-470 for 30 min and treated with LPS 50 ng/mL for 6 h, respectively. Whole cell lysates were isolated and used to measure the protein expression levels of […], ASC, pro-caspase-1, pro-IL-1β, and β-actin by Western blot analysis.
# as §1
# pro-caspase-1 = assay: Pro-caspase-1 protein expression in LPS-treated RAW 264.7 cells (Western blot); conditions: KMU-470 0.1, 0.5, 1 μM 30 min, LPS 50 ng/mL 6 h
# Protocol: as §5, §1
smiles,measurement,setting,value
"CN(C)CCNc1cncc(-c2ccc3c(c2)/C(=C/c2cnc[nH]2)C(=O)N3)n1 [KMU-470, (Z)-3-((1H-Imidazol-5-yl)methylene)-5-(6-((2-(dimethylamino)ethyl)amino)pyrazin-2-yl)indolin-2-one]",LPS-induced up-regulation of iNOS protein,iNOS protein,attenuated
same,Up-regulation of TLR4 protein by LPS,TLR4,suppressed
same,Up-regulation of MyD88 protein by LPS,MyD88,suppressed
same,LPS-induced phosphorylation of JNK,JNK,significantly inhibited
same,p38 phosphorylation level,p38,no change
same,LPS-induced phosphorylation of IKKα/β,IKKα/β,significantly reduced
same,LPS-induced phosphorylation of NF-κB,NF-κB,significantly reduced
same,Expression of ASC protein compared with LPS alone group,ASC,marked decrease
same,Pro-caspase-1 expression,pro-caspase-1,not changed
